Patent US11998008B2, “Pesticides and methods of controlling pests” (The State of Israel, Ministry of Agriculture & Rural …, priority 2017, dated 2024)

What was measured:
[1] = tested on: F. oxysporum f. sp. radicis-cucumerium; assay: Fungicidal activity assay on PDA in sealed Petri dish (growth inhibition and mortality); assay type: cell-based, Fusarium oxysporum f. sp. radicis-cucumerinum; details: Fusarium oxysporum, NA + number = still viable in the highest concentration tested (given as >), read-out: M - Mortality, minimal concentration that killed the fungus
Meloidogyne javanica J2s = assay: Greenhouse nematocidal experiment with susceptible tomato plants in inoculated loam; assay type: in vivo; details: 30 ppm in soil, tomato harvested after 8 weeks
Protocol: The activity of trans-2-octenal against nematodes was examined in a greenhouse experiment using stage 2 juveniles of the rot-knot nematode Meloidogyne javanica. […] After 2 days, the inoculated soil was treated with 30 ppm of trans-2-octenal and incubated for additional 5 days. Then, susceptible tomato plants were planted, and allowed to grow in a growing chamber for 8 weeks. At the end of the experiment, the plants, along with their root systems, were harvested from their pots and evaluated for incidence of root galling. In addition, M. javanica eggs were extracted from each root and counted, and the number of eggs per gram root was calculated. As shown in FIGS. 14A-14D, trans-2-octenal reduced the galling index and the number of eggs per gram root. […] The activity of 2-cyclohexen-1-one against nematodes was examined in a greenhouse experiment using stage 2 juveniles of the rot-knot nematode Meloidogyne javanica. The experiment was performed as described for trans-2-octenal. […] After 2 days, the inoculated soil was treated with 15 or 31 ppm of 2-cyclohexen-1-one and incubated for additional 5 days. Then, susceptible tomato plants were planted, and allowed to grow in a growing chamber for 8 weeks. At the end of the experiment, the plants, along with their root systems, were harvested from their pots and evaluated for incidence of root galling. In addition, M. javanica eggs were extracted from each root and counted, and the number of eggs per gram root was calculated.

[2] = tested on: Fusarium oxysporum f sp. radicis-cucumerinum (FORC); assay: Effect on FORC in loam soil in buckets; assay type: in vivo
Protocol: The activity of trans-2-octenal was examined against phytopathogenic fungi and weeds. The experiment was performed in large buckets (110 L), which bottoms were removed, and therefore the loam in the bucket was continuous with the ground. The soil was inoculated one day prior the application of the compound. Soil inoculation was performed as follows: spores of Fusarium oxysporum f sp. radicis-cucumerinum (FORC) were collected from culture plates and 25 mL of spore suspension at concentration of 9×10^5 was mixed with 10 L of tap water and then poured on the soil of each bucket. […] Half of the buckets were sealed with nylon while the other half remained open. Five days later, soil samples from three different depths (10, 20, and 30 cm) were taken from each bucket for fungal isolation and determination of fungal survival. […] After 3 days, the number of colonies was counted. […] Similar results were obtained at close condition, except at depth 30 cm at concentration of 62.5 ppm.

[3] = tested on: lettuce seedling strain Raviv; details: in vivo, 11 days
Protocol: An experiment in a larger scale was performed in loam soil in which the seedling were planted directly in the treated plot. The soil was treated with 0, 25, 50, 100, 200, 400, 800, and 1,600 ppm of emulsion of trans-2-octenal. The compound was applied using the irrigation system. A day later, tomato seedling strains Ikram and Abigail and lettuce seedling strain Raviv (10 seedlings each) were planted into the treated soil of each concentration. Eleven days later, the number of viable seedlings was counted.

Tomato plants = assay: Phytotoxicity on tomato plants in soil, compound on perlite particles; assay type: in vivo; details: one day after treatment
Excerpt: In exemplary procedures, the phytotixicity of trans-2-octenal and 2-cyclopenten-1-one was examined in triplicates for each concentration: 250, 1,000, 4,000, and 20,000 ppm compared to control.

[4] = tested on: Meloidogyne javanica second stage juveniles (J2s); assay: Nematocidal activity: viability of J2 nematodes after 2 days exposure to the compound in a sealed box; assay type: in vivo; details: comparison within the series
Excerpt: In exemplary procedures, the sedentary root-knot nematode from the genus Meloidogyne javanica second stage juveniles (J2s) was propagated on greenhouse-grown nematode-susceptible tomato Lycopersicon esculentum cv. ‘Avigail 870’ (Hazera, Shikmim, Israel), and nematode eggs were bulk-extracted from the roots with 0.05% (v/v) sodium hypochlorite (NaOCl) followed by sucrose flotation and successive sievings through nylon filters of 300, 120, 60, and 30 μm mesh sizes (AD Sinun Technologies, Petach Tikvah, Israel). For hatching J2, extracted eggs were placed on 30-μm sieves (AD Sinun Technologies) in 0.01 M MES (2-(N-morpholino) ethanesulfonic acid hydrate) pH 6.5 buffer under aseptic conditions in darkness for 5 days, and hatching J2s were collected for further experiments.
Seven vials, each containing 300 J2 nematodes with 0.5 mL of 0.01 M 2-(N-morpholino)ethanesulfonic acid (MES) buffer, were exposed to cyclic ketone compounds in order to examine their nematocidal activity and reduction in viability. In addition, a humid environment in a sealed 1 L box was maintained by addition 5 ml of distilled H2O to a 50-mm Petri plate. The box was sealed after compound addition into each 50-mm Petri plate together with 5-250 mg of perlite particles and incubated for 2 days in the dark at 25±1° C. C5 and C6 saturated and α,β-unsaturated cyclic ketones were tested for their nematocidal activity. The J2 nematodes viability was examined following exposure to the cyclic ketone compounds, by a straightforward small-scale nematode extraction method, based on the traditional Baermann funnel method. Briefly, all nematode suspensions were loaded onto 30-μm (AD Sinun Technologies) filters (1.0-1.5 cm height, 1.1-2.0 cm^3 internal area), and the nematodes were washed twice with 300 μL of 0.01 M MES buffer in order to remove any residues. Then, filters holding nematodes were placed into 15 mL Falcon centrifuge tubes, each containing 900 μL of 0.01 M of MES buffer. These filters allow active passage of only living J2s while paralyzed or dead nematodes remain on top of the filter. The whole apparatus including the filter holding the nematodes and the Falcon tubes were placed in the dark for 3 h at 25±1° C. Then, the filters were removed and the viable nematodes, which were able to actively cross the filter toward the 0.01 M of MES buffer, were collected from the Falcon tube and counted using a Nematode Counting Slide (Chalex LLC, Portland, OR, USA) and a SV11 stereomicroscope (Zeiss, Jena, Germany).
Data were analyzed by the JMP 12 software package (SAS Inc., Cary, NC, USA). Mean numbers of viable J2s under various conditions were subjected to one-way analysis of variance (ANOVA), followed by the Tukey-Kramer multiple comparison test, with significance set at P<0.05.

tomato strain Abigail = assay: Field phytotoxicity in loam soil, seedlings planted one day after application; assay type: in vivo; details: emulsion, viable seedlings counted eleven days after planting

## CCCCC/C=C/C=O [trans-2-octenal]
[1]
  MFC: 6.25 µg/mL
Meloidogyne javanica J2s
  galling index: reduced
  number of eggs per gram root: reduced
[2]; close condition, except at depth 30 cm
  concentration sufficient to eliminate FORC: 62.5 ppm
[2]; open conditions, all depths examined (10, 20, 30 cm), 5 days
  concentration sufficient to eliminate FORC: 62.5 ppm
[3]
  concentration at which significant phytotoxic effect occurred: 400 ppm
Tomato plants; 250 ppm
  phytotoxicity: No phytotoxicity
Tomato plants; 1,000 ppm
  phytotoxicity: No phytotoxicity
Tomato plants; 4,000 ppm
  phytotoxicity: No phytotoxicity
Tomato plants; 20,000 ppm
  phytotoxicity: No phytotoxicity
[4]
  nematocidal activity in words: relatively less potent nematicide
Tomato strain Abigail
  concentration at which significant phytotoxic effect occurred: 400 ppm
